{"source": "patent US20170100447A1", "about": "“COMPOSITIONS BASED ON PLANT EXTRACTS FOR INHIBITION OF THE 5-ALPHA REDUCTASE” (BIONAP S.R.L., priority 2014, published 2017)", "system": "immortalized human sebocytes (SZ95 sebocyte line)", "assay": "MTT assay on testosterone-stimulated sebocytes", "assay_type": "cell-based", "conditions": "testosterone 10^−6 M; 9 days", "method": "The line of immortalized human sebocytes (SZ95 sebocyte line) has been cultivated in medium Sebomed (Biochrom) supplemented with fetal calf serum 10%, […] of recombining human epidermal growth factor, 1 mM Ca^2+ and 50 μg/ml gentamicin, in an atmosphere of CO2 5% at 37° C. The SZ95 cells have been subsequently plated on wells for the MTT assays and, after 24 hours of incubation in an atmosphere of CO2 5% at 37° C., have been treated with a new culture medium containing testosterone in a final concentration of 10^−6 M and the extracts, according to the indications reported in Table 1.\nThe cellular vitality has been assessed for each sample after 9 days of treatment through colorimetric MTT assay (according to the protocol as above described) and expressed in a percentage value with respect to control (0%) and to the treatment with testosterone (test=100%). Each experiment has been carried out in triplicate."}
{"smiles": "C[C@]12CC[C@H]3[C@@H](CCC4=CC(=O)CC[C@@]43C)[C@@H]1CC[C@@H]2O", "note": "[testosterone]", "values": [{"measurement": "effect of testosterone on cellular proliferation of SZ95 sebocytes", "result": "induces in these cells an increase of cellular proliferation"}]}
